Assay results taken from PubChem BioAssay (NCI).
Values joined by “and” are separate entries in the source; they are usually repeats but may differ in a detail not shown here. Equal entries are not always repeated.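 Cells were grown in 96-well plates and exposed to each compound for 48 hours at five concentrations; endpoints were interpolated linearly between bracketing concentrations, or set to the highest concentration if not reached. At the GI50, growth is halved. TGI marks complete inhibition of growth.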

How the values were obtained:
Assay in all cases: DTP human tumour cell line panel, 48 h
CCRF-CEM leukemia = tested on: CCRF-CEM leukemia
EKVX NSCLC = tested on: EKVX NSCLC
HS 578T breast = tested on: HS 578T breast
MALME-3M melanoma = tested on: MALME-3M melanoma
MCF7 breast = tested on: MCF7 breast
NCI-H23 lung = tested on: NCI-H23 lung
RXF 393 renal = tested on: RXF 393 renal
SNB-75 CNS = tested on: SNB-75 CNS
UACC-257 melanoma = tested on: UACC-257 melanoma
UACC-62 melanoma = tested on: UACC-62 melanoma

| Compound | TGI (CCRF-CEM leukemia) | TGI (EKVX NSCLC) | TGI (HS 578T breast) | TGI (MALME-3M melanoma) | TGI (MCF7 breast) | TGI (NCI-H23 lung) | TGI (RXF 393 renal) | TGI (SNB-75 CNS) | TGI (UACC-257 melanoma) | TGI (UACC-62 melanoma) | GI50 (CCRF-CEM leukemia) | GI50 (EKVX NSCLC) | GI50 (HS 578T breast) [µM] | GI50 (MALME-3M melanoma) | GI50 (MCF7 breast) | GI50 (NCI-H23 lung) | GI50 (RXF 393 renal) [µM] | GI50 (SNB-75 CNS) [µM] | GI50 (UACC-257 melanoma) | GI50 (UACC-62 melanoma) [µM] |
| --- | --- | --- | --- | --- | --- | --- | --- | --- | --- | --- | --- | --- | --- | --- | --- | --- | --- | --- | --- | --- |
| COc1cc(OC)cc(-c2cc(=O)c3c(OC)c(OC)c(OC)c(OC)c3o2)c1 | > 100 µM | > 100 µM | 90.6 µM | > 100 µM | > 100 µM | > 100 µM | 84.8 µM | > 100 µM | > 100 µM | > 100 µM | – | – | – | – | – | – | – | – | – | – |
| COc1cccc(-c2nc(-c3ccc(NC(=O)C(C)C)cc3)[nH]c2-c2ccnc(Br)c2)c1 | > 100 µM | 8.01 µM | 3.93 µM | 9.26 µM | 5.2 µM | – | 1.46 µM | > 100 µM | > 100 µM | 7.99 µM | 2.99 µM | 2.43 µM | 0.548 | 2.65 µM | 1.67 µM | 2.88 µM | 0.354 | 0.488 | 4.02 µM | 2.57 |
| Cc1cc(O)c(/C=N/C(=S)NCc2ccccc2)c(=O)o1 | > 100 µM | > 100 µM | > 100 µM | > 100 µM | > 100 µM | > 100 µM | > 100 µM | > 100 µM | > 100 µM | > 100 µM | – | – | – | – | – | – | – | – | – | – |
| O=C(CCc1nnc2sc(-c3ccc(Cl)cc3Cl)nn12)c1nc2ncccc2[nH]1 | 9 µM | 7.98 µM | 8.02 µM | 4.1 µM | > 100 µM | 4.41 µM | 3.34 µM | 3.79 µM | 9.01 µM | 3.31 µM | 2.68 µM | 2.71 µM | 2.71 | 1.85 µM | 2.59 µM | 1.76 µM | 1.8 | 0.459 | 3 µM | 1.65 |
| Nc1ncnc2c1nnn2C1OC(CO)C(O)C1O (configuration not stated) | 27.9 µM | 27.5 µM | 4.72 µM | 4.62 µM | 16.8 µM | 10.8 µM | 1.51 µM | 16.9 µM | 10.9 µM | 4.72 µM | – | – | 0.467 | – | – | – | 0.271 | – | – | – |
| N#CC(C#N)=CNC(N)=S | > 100 µM | > 100 µM | > 100 µM | > 100 µM | > 100 µM | > 100 µM | > 100 µM | > 100 µM | > 100 µM | > 100 µM | – | – | – | – | – | – | – | – | – | – |
| CC[C@H](Nc1ncnc2nc[nH]c12)c1oc2ccccc2c(=O)c1-c1cccc(F)c1 | > 100 µM | > 100 µM | 86.9 µM | > 100 µM | > 100 µM | > 100 µM | 78.2 µM | 56.1 µM | > 100 µM | 69 µM | 23.3 µM | 31.8 µM | 14.1 | 25.1 µM | 21.1 µM | 29.7 µM | 13.2 | 4.15 | 25.7 µM | 10.5 |
| CC(=O)OC1=CC(n2cc(F)c(=O)[nH]c2=O)OC(C)C1=O (configuration not stated) | > 100 µM | > 100 µM | > 100 µM | > 100 µM | > 76.2 µM | > 100 µM | > 100 µM | 99.5 µM | > 100 µM | > 100 µM | – | – | – | – | – | – | – | – | – | – |
| Cc1cc(I)cc(CN(C)CCCN2CCCCC2)c1O | 43.4 µM | 37.3 µM | 75.6 µM | 42.3 µM | 35.9 µM | 56.5 µM | 26.6 µM | 34.8 µM | 31.9 µM | 41.6 µM | 18.6 µM | 16.3 µM | 9.75 | 21.7 µM | 16.7 µM | 19 µM | 11.7 | 16.6 | 16.4 µM | 14.2 |
| CN(C)CCSC1=Nc2ccc(Cl)cc2C(c2ccccc2Cl)=NC1 | 82.1 µM and > 100 µM | 29.9 µM and > 100 µM | 35.7 µM and > 100 µM | 28.3 µM and > 100 µM | 25.5 µM and > 100 µM | 30.2 µM and > 100 µM | 15.9 µM and > 100 µM | 33.1 µM and > 100 µM | 26.3 µM and > 100 µM | 19.1 µM and > 100 µM | 21.5 µM and 46.2 µM | 14.8 µM and 43.4 µM | – | 13.5 µM and > 100 µM | 12 µM and 67.4 µM | 15 µM and 97.1 µM | – | – | 13.4 µM and > 100 µM | – |
| CN1CCN(CCCn2c(=O)c3sc4ncccc4c3n3nnc(-c4ccccc4)c23)CC1 | 5.29 µM | 13.3 µM | 16 µM | 17.9 µM | 15 µM | 15.3 µM | 13.4 µM | 13.3 µM | 7.62 µM | 16.1 µM | 1.55 µM | 6.47 µM | 6.47 | 9.41 µM | 7.69 µM | 8.07 µM | 6.36 | 6.82 | 2.27 µM | 8.85 |
